Experimental findings from patent publication US20050107386A1, “Methods of treating diseases and disorders by targeting multiple kinases” (priority 2003, published 2005) are described below.

One experiment concerns the target GSK3α(h) (Homo sapiens, UniProt P49840). The experiment is described as follows: GSK3α(h) kinase assay. The format is biochemical. The conditions noted are these: 3 μM; percent of control kinase activity. The protocol: (§1) Six compounds (presumptive single agents) were tested against a panel of 50 kinases. The results are presented in Table 2; numbers for each kinase indicate the percent of control kinase activity in the presence of a 3μM concentration of the indicated agent.
(§2) Agents that target two or more different kinases are useful in the methods of the invention as described elsewhere herein. Such compounds may be identified, and their effect on certain kinases may be identified, using the assays briefly described below in Examples 4-83. Each of these assays was carried out as described in Davies et al., Biochem. J., 351:95-105 (2000). All assays were carried out at 10 μM ATP unless otherwise noted.

The target of a further experiment is Yes(h) (Homo sapiens, UniProt P07947). Nature of the experiment: Yes(h) kinase assay. The following applies: for Inhibitory activity (% of control), Yes(h): 3 μM, percent of control kinase activity. The class given is biochemical. The protocol:
as §1, §2
In a final reaction volume of 25 μl, Yes(h) (5-10 mU) is incubated with 8 mM MOPS pH 7.0, 0.2 mM EDTA, 0.1 mg/ml poly(Glu, Tyr) 4:1, 10 mM MgAcetate and [γ-^33P-ATP] (Specific activity approx. 500 cpm/pmol, concentration as required). The reaction is initiated by the addition of Mg^2+ [γ-^33P-ATP]. After incubation for 40 minutes at room temperature, the reaction is stopped by the addition of 5 μl of a 3% phosphoric acid solution. 10 μl of the reaction is then spotted onto a Filtermat A and washed three times for 5 minutes in 75 mM phosphoric acid and once in methanol prior to drying and scintillation counting.

In the next experiment the target is PRK2(h) (Homo sapiens, UniProt Q16513). Nature of the experiment: PRK2(h) kinase assay. The class given is biochemical. The conditions noted are these: 3 μM; percent of control kinase activity. The protocol:
as §1, §2
(§3) In a final reaction volume of 25 μl, PRK2 (h) (5-10 mU) is incubated with 50 mM Tris pH 7.5, 0.1 mM EGTA, 0.1% β-mercaptoethanol, 30 μM […] (SEQ ID NO:12), 10 mM MgAcetate and [γ-^33P-ATP] (specific activity approx. 500 cpm/pmol, concentration as required). The reaction is initiated by the addition of Mg^2+ [γ-^33P-ATP]. After incubation for 40 minutes at room temperature, the reaction is stopped by the addition of 5 μl of a 3% phosphoric acid solution. 10 μl of the reaction is then spotted onto a P30 filtermat and washed three times for 5 minutes in 75 mM phosphoric acid and once in methanol prior to drying and scintillation counting.

In a further experiment the target is ROCK-II(h) (Homo sapiens, UniProt O75116). The experiment is described as follows: ROCK-II(h) kinase assay. The class given is biochemical. The following applies: 3 μM; percent of control kinase activity. The protocol: as §1, §2
as §3, with “ROCK-II” for “PRK2”, “EGTA,” for “EGTA, 0.1% β-mercaptoethanol,”, “NO:8),” for “NO:12),”

The next experiment deals with MAPK2(h) (Homo sapiens, UniProt P28482). The experiment is described as follows: MAPK2(h) kinase assay. The class given is biochemical. The conditions noted are these: 3 μM; percent of control kinase activity. The protocol: as §1, §2
(§4) In a final reaction volume of 25 μl, MAPK2(h) (5-10 mU) is incubated with 25 mM Tris pH 7.5, 0.02 mM EGTA, 0.33 mg/ml myelin basic protein, 10 mM MgAcetate and [γ-^33P-ATP] (specific activity approx. 500 cpm/pmol, concentration as required). The reaction is initiated by the addition of Mg^2+ [γ-^33P-ATP]. After incubation for 40 minutes at room temperature, the reaction is stopped by the addition of 5 μl of a 3% phosphoric acid solution. 10 μl of the reaction is then spotted onto a P30 filtermat and washed three times for 5 minutes in 75 mM phosphoric acid and once in methanol prior to drying and scintillation counting.

The next experiment concerns c-RAF(h). The experiment is described as follows: c-RAF(h) kinase assay. The format is biochemical, human. The following applies: 3 μM; percent of control kinase activity. The protocol: as §1, §2
as §4, with “c-RAF (h)” for “MAPK2(h)”, “0.66” for “0.33”

Another experiment has as its target T1, PDK1(h) (Homo sapiens, UniProt O15530).
T1 sequence (O15530 1-556): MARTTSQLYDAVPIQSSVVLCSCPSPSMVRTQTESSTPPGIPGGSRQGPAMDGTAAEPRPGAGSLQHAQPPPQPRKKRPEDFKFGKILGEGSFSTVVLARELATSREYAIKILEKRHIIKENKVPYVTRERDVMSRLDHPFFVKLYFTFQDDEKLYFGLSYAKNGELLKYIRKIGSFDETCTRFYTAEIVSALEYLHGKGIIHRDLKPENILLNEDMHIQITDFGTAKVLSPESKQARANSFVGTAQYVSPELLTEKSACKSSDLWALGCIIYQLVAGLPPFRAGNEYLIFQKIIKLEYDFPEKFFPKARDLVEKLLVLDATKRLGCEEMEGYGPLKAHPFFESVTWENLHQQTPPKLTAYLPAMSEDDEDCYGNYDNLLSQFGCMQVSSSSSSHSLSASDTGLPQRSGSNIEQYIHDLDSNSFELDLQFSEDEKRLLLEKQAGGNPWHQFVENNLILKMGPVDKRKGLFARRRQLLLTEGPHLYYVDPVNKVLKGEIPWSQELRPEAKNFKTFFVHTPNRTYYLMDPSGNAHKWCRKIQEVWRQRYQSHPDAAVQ
The experiment is described as follows: PDK1(h) kinase assay. The format is biochemical. The following applies: 3 μM; percent of control kinase activity. The protocol: as §1, §2
as §3, with “PDK1” for “PRK2”, “100” for “0.1 mM EGTA, 0.1% β-mercaptoethanol, 30”, “NO:13) (PDKtide), 0.1% β-mercaptoethanol,” for “NO:12),”

Molecules are shown by their SMILES.

Chain of PRK2(h) (Q16513 whole entry): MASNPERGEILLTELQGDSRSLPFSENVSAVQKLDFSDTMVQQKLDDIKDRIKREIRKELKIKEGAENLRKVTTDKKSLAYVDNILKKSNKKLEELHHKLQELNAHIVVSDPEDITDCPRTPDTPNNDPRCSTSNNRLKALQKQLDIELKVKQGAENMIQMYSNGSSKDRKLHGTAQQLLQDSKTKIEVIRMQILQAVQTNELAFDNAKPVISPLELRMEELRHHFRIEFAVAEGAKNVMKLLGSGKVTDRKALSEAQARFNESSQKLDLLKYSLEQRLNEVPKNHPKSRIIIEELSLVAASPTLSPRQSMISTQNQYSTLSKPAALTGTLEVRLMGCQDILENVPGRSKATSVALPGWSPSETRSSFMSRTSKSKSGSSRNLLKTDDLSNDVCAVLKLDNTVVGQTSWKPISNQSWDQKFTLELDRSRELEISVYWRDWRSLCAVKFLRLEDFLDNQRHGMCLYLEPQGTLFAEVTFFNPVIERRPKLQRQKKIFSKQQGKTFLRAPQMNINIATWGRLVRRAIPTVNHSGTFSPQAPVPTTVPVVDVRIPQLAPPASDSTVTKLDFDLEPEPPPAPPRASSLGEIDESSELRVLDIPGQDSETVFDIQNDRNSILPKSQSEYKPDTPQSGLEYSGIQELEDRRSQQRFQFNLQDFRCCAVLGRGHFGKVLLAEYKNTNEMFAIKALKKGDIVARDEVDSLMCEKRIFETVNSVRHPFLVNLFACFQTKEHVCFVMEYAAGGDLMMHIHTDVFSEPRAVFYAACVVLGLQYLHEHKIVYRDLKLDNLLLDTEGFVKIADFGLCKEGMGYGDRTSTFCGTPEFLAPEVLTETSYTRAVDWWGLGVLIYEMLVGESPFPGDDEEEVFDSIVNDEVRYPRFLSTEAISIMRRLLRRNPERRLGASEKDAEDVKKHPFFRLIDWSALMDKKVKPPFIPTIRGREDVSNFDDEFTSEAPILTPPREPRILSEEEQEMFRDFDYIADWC
Chain of ROCK-II(h) (O75116 whole entry): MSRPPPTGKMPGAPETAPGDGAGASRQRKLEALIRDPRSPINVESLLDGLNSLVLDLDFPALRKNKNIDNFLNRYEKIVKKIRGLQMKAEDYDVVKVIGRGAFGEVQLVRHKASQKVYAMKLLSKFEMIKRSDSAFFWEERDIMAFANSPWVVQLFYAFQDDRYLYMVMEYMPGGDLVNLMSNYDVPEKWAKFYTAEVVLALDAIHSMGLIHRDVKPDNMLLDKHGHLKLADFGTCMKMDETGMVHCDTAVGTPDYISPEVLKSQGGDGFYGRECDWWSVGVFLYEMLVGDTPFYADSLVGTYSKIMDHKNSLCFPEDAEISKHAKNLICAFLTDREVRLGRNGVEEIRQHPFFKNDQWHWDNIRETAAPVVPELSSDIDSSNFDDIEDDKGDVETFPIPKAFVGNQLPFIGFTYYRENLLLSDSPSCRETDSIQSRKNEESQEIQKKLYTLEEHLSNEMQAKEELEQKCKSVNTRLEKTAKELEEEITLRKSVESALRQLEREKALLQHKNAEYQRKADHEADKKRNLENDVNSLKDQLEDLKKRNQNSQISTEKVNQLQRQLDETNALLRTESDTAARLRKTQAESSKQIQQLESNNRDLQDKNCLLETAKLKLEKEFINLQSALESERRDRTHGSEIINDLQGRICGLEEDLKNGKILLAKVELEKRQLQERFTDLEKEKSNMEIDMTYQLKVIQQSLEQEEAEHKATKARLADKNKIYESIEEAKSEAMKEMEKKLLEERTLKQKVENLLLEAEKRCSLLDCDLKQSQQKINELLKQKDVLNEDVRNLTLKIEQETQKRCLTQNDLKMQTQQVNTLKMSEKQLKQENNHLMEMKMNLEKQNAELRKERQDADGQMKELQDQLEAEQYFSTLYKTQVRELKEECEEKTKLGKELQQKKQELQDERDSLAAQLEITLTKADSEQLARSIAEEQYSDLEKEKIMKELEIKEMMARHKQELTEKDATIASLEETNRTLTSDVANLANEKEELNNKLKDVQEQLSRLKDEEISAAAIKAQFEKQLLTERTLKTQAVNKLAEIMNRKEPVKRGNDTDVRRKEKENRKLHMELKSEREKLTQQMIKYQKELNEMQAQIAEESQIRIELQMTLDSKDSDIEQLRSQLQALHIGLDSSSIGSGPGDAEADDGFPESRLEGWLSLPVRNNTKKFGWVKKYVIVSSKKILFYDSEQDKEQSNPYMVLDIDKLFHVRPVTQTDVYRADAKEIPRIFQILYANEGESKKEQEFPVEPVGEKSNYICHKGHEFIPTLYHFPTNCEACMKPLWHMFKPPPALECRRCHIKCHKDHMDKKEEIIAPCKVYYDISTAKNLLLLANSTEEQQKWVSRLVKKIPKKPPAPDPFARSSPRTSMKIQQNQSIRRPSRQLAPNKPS
Chain of Yes(h) (P07947 whole entry): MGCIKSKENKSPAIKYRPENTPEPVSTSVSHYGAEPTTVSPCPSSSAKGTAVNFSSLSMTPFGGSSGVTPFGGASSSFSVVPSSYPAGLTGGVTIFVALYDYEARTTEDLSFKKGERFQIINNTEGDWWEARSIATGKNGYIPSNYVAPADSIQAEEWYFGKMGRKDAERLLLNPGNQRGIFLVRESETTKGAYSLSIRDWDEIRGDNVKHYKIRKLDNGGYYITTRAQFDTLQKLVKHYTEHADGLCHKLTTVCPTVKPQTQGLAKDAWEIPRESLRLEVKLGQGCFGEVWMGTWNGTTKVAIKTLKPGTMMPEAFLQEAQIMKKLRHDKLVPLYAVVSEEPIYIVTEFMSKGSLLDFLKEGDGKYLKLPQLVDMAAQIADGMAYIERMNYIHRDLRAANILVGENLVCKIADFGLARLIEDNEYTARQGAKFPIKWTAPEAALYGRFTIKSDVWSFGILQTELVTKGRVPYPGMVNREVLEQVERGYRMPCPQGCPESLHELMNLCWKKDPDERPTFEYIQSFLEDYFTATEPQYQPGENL
Chain of GSK3α(h) (P49840 whole entry): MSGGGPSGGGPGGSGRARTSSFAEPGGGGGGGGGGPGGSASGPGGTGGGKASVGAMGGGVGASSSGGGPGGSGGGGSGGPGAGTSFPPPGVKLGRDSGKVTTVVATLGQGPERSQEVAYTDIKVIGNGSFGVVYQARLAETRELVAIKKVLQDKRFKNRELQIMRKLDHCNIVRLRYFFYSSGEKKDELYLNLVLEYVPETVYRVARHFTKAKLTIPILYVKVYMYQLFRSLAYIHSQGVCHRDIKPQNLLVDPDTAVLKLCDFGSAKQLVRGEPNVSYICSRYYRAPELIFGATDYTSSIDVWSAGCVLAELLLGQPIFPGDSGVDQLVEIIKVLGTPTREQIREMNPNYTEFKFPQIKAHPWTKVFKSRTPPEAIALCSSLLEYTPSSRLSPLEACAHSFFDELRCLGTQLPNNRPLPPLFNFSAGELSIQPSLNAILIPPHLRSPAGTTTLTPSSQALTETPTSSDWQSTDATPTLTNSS
Chain of MAPK2(h) (P28482 whole entry): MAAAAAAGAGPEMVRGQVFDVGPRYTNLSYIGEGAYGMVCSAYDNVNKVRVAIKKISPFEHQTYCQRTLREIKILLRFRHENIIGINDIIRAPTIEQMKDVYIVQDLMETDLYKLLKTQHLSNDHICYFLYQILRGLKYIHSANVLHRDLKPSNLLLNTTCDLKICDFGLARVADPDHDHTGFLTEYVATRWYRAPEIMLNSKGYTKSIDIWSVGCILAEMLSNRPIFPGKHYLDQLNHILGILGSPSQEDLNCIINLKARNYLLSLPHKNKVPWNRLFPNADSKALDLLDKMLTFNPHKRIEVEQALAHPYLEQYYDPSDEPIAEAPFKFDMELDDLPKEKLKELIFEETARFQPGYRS

For `CC(C)Cc1nc(-c2ccc3[nH]nc(-c4ccc5cc(OCCN6CCCC6)ccc5c4)c3c2)n[nH]1` [CC002, 5-(5-Isobutyl-1H-[1,2,4]Triazol-3-yl)-3-[6-(2-Pyrrolidin-1-yl-Ethoxy)-Naphthalen-2-yl]-1H-Indazole], on GSK3α(h), the “Inhibitory activity (% of control), GSK3α(h)” value is 38 % of control. The “Inhibitory activity (% of control), Yes(h)” value at Yes(h) is reported as −3 % of control. The “Inhibitory activity (% of control), PRK2(h)” value at PRK2(h) is 4 % of control. The “Inhibitory activity (% of control), ROCK-II(h)” value at ROCK-II(h) is recorded as 2 % of control. Besides, on MAPK2(h), the “Inhibitory activity (% of control), MAPK2(h)” value is 2 % of control. In addition, the “Inhibitory activity (% of control), c-RAF(h)” value in the experiment with c-RAF(h) was 96 % of control. Moreover, the “Inhibitory activity (% of control), PDK1(h)” value on PDK1(h) is 58 % of control.

Take `O=C(NC1CCCC1)c1cccc(-c2n[nH]c3ccc(-c4nc[nH]n4)cc23)c1` [CC007, 3-(5-(1H-1,2,4-triazol-3-yl)(1H-indazol-3-yl))phenyl-N-cyclopentylcarboxamide, reference compound]: on GSK3α(h), the “Inhibitory activity (% of control), GSK3α(h)” value is on record as 18 % of control. Also, the “Inhibitory activity (% of control), Yes(h)” value on Yes(h) is 50 % of control. Moreover, the “Inhibitory activity (% of control), PRK2(h)” value at PRK2(h) is recorded as 68 % of control. The “Inhibitory activity (% of control), ROCK-II(h)” value on ROCK-II(h) is recorded as 69 % of control. For the same molecule, the “Inhibitory activity (% of control), MAPK2(h)” value at MAPK2(h) was 3 % of control. The “Inhibitory activity (% of control), c-RAF(h)” value in the experiment with c-RAF(h) is 92 % of control. Besides, the “Inhibitory activity (% of control), PDK1(h)” value on PDK1(h) is given as 97 % of control.

`Fc1ccc(-c2n[nH]c3ccc(-c4n[nH]c(C5CCCC5)n4)cc23)cc1` [CC006, 5-(5-Cyclopentyl-1H-[1,2,4]triazol-3-yl)-3-(4-fluoro-phenyl)-1H-indazole, reference compound]: the “Inhibitory activity (% of control), GSK3α(h)” value at GSK3α(h) is listed as 38 % of control. The “Inhibitory activity (% of control), Yes(h)” value at Yes(h) is reported as 57 % of control. For the same molecule, the “Inhibitory activity (% of control), PRK2(h)” value at PRK2(h) is 24 % of control. On ROCK-II(h), the “Inhibitory activity (% of control), ROCK-II(h)” value is on record as 13 % of control. Also, the “Inhibitory activity (% of control), MAPK2(h)” value on MAPK2(h) is recorded as 3 % of control. For the same molecule, the “Inhibitory activity (% of control), c-RAF(h)” value with c-RAF(h) is recorded as 99 % of control. Also, the “Inhibitory activity (% of control), PDK1(h)” value on PDK1(h) is 43 % of control.

In the case of `COc1ccc2cc(-c3n[nH]c4ccc(-c5n[nH]c(CN6CCOCC6)n5)cc34)ccc2c1` [CC001, 3-(6-Methoxynaphthalen-2-yl)-5-(5-Morpholin-4-Ylmethyl-1H-[1,2,4]Triazol-3-yl)-1H-Indazole], on GSK3α(h), the “Inhibitory activity (% of control), GSK3α(h)” value is reported as 15 % of control. For the same molecule, the “Inhibitory activity (% of control), Yes(h)” value at Yes(h) was 2 % of control. The “Inhibitory activity (% of control), PRK2(h)” value on PRK2(h) is recorded as 9 % of control. In addition, the “Inhibitory activity (% of control), ROCK-II(h)” value on ROCK-II(h) was 4 % of control. For the same molecule, at MAPK2(h), the “Inhibitory activity (% of control), MAPK2(h)” value was 0 % of control. Further, the “Inhibitory activity (% of control), c-RAF(h)” value in the experiment with c-RAF(h) is given as 99 % of control. Further, the “Inhibitory activity (% of control), PDK1(h)” value at PDK1(h) is given as 59 % of control.

As for `CC(C)(C)Cc1nc(-c2ccc3[nH]nc(-c4ccc5cc(OCc6ccccn6)ccc5c4)c3c2)n[nH]1` [CC004, 5-[5-(2,2-Dimethyl-propyl)-1H-[1,2,4]triazol-3-yl]-3-[6-(pyridine-2-ylmethoxy)-naphthalen-2-yl]-1H-indazole], the “Inhibitory activity (% of control), GSK3α(h)” value on GSK3α(h) is given as 65 % of control. Besides, the “Inhibitory activity (% of control), Yes(h)” value on Yes(h) is 24 % of control. The “inhibitory activity against Yes, in words” value against Yes(h) (summary of Table 2) is “somewhat less inhibitory activity”. The “Inhibitory activity (% of control), PRK2(h)” value on PRK2(h) is reported as 3 % of control. Further, the “Inhibitory activity (% of control), ROCK-II(h)” value on ROCK-II(h) is recorded as 5 % of control. Also, at MAPK2(h), the “Inhibitory activity (% of control), MAPK2(h)” value is reported as 1 % of control. Also, the “Inhibitory activity (% of control), c-RAF(h)” value with c-RAF(h) is 85 % of control. The “Inhibitory activity (% of control), PDK1(h)” value at PDK1(h) was 70 % of control.

Regarding `CCN1CCC[C@H]1COc1ccc2cc(-c3n[nH]c4ccc(-c5nc(CC(C)(C)C)n[nH]5)cc34)ccc2c1` [CC005, 2-[((2s)-1-ethylpyrrolidin-2-yl)methoxy]-6-{5-[3-(2,2-Dimethylpropyl)(1H-1,2,4,-triazol-5-yl)](1H-indazol-3-yl)}naphthalene], the “Inhibitory activity (% of control), GSK3α(h)” value at GSK3α(h) was 35 % of control. In addition, the “Inhibitory activity (% of control), Yes(h)” value at Yes(h) is 0 % of control. Further, the “Inhibitory activity (% of control), PRK2(h)” value at PRK2(h) was 1 % of control. At ROCK-II(h), the “Inhibitory activity (% of control), ROCK-II(h)” value is listed as 2 % of control. The “Inhibitory activity (% of control), MAPK2(h)” value at MAPK2(h) is 2 % of control. In the experiment on c-RAF(h), the “Inhibitory activity (% of control), c-RAF(h)” value is reported as 100 % of control. Also, the “Inhibitory activity (% of control), PDK1(h)” value on PDK1(h) is given as 59 % of control.
